Experimental data published in US11851446B2, “Probes for imaging Huntingtin protein” (CHDI Foundation, Inc., priority 2014, dated 2023).

How the values were obtained:
Q46 protein aggregates = biological target: T1, Q46 protein aggregates (Homo sapiens, UniProt P42858, INS38QQQQQQQQQQQQQQQQQQQQQQQQQ); test: Q46 Radioligand Binding Assay (RBA); conditions: displacement of 10 nM [3H3]MK-3328 from 5 μM aggregated Q46 protein, 60 minutes at 37° C.
T1 construct: fused on or other part: GST at the N-terminus, cut off by thrombin before the test to start aggregation
Description: Q46 Radioligand Binding Assay
For radioligand binding assays (RBA) GST-Q46 protein was generated based on a previous publication (Scherzinger et al. Cell, Vol. 90, 549-558, Aug. 8, 1997). For experiments 33 μM GST-Q46 was incubated with 150 μg/mL thrombin in assay buffer (150 mM NaCl, 50 mM Tris pH 8.0) and 2 mM CaCl2 for 16 hours at 37° C. Aggregated Q46 was pelleted by centrifugation for 5 minutes at 13,000 rpm in a bench top centrifuge and re-dissolved in the same volume of assay buffer. Test compounds were prepared by titration in DMSO at 11 concentrations from 33 μM to 1 nM. For the RBA, Q46 protein aggregates and test compounds were pre-incubated in assay buffer for 20 minutes at room temperature, in 140 μL/well in a 96-well plate (pp, round bottom). Then, ligand was added in 10 μL/well and incubated for 60 minutes at 37° C. Final assay concentrations were […] test compound, 5 μM Q46 protein (equivalent monomer concentration) and 10 nM ligand [^3H3]MK-3328 (Harrision et al., ACS Med. Chem. Lett., 2 (2011), pp 498-502). Samples were transferred onto GF/B filter plates and washed 2× with 200 μL PBS using a Filtermate Harvester. After drying filter plates for 1 hour at 37° C., the back of the plates was sealed with foil and 30 μl/well scintillation fluid (Packard MicroScint 40) was added, incubated for […] 15 minutes in the dark and counted in a TopCount reader. For analysis, replicate data from independent assay plates were normalized towards 0% and 100% inhibition using control wells of vehicle (0% inhibition) and 3 μM unlabelled MK-3328 (100% inhibition). IC50 values were determined with a sigmoidal inhibition model with four variables (top, bottom, slope, IC50) in a global fit using the normalized replicate data.

[1] = tested on: NFT in sections of AD brain tissue; conditions: in vitro autoradiography and fluorescent staining; cited from earlier work
[2] = tested on: recombinant tau and amyloid β1-42 (Aβ1-42) aggregates; conditions: higher affinity for the tau aggregates than Aβ1-42 aggregates; cited from earlier work

T1 sequence (P42858 with tags, fused parts or gaps with the stated changes): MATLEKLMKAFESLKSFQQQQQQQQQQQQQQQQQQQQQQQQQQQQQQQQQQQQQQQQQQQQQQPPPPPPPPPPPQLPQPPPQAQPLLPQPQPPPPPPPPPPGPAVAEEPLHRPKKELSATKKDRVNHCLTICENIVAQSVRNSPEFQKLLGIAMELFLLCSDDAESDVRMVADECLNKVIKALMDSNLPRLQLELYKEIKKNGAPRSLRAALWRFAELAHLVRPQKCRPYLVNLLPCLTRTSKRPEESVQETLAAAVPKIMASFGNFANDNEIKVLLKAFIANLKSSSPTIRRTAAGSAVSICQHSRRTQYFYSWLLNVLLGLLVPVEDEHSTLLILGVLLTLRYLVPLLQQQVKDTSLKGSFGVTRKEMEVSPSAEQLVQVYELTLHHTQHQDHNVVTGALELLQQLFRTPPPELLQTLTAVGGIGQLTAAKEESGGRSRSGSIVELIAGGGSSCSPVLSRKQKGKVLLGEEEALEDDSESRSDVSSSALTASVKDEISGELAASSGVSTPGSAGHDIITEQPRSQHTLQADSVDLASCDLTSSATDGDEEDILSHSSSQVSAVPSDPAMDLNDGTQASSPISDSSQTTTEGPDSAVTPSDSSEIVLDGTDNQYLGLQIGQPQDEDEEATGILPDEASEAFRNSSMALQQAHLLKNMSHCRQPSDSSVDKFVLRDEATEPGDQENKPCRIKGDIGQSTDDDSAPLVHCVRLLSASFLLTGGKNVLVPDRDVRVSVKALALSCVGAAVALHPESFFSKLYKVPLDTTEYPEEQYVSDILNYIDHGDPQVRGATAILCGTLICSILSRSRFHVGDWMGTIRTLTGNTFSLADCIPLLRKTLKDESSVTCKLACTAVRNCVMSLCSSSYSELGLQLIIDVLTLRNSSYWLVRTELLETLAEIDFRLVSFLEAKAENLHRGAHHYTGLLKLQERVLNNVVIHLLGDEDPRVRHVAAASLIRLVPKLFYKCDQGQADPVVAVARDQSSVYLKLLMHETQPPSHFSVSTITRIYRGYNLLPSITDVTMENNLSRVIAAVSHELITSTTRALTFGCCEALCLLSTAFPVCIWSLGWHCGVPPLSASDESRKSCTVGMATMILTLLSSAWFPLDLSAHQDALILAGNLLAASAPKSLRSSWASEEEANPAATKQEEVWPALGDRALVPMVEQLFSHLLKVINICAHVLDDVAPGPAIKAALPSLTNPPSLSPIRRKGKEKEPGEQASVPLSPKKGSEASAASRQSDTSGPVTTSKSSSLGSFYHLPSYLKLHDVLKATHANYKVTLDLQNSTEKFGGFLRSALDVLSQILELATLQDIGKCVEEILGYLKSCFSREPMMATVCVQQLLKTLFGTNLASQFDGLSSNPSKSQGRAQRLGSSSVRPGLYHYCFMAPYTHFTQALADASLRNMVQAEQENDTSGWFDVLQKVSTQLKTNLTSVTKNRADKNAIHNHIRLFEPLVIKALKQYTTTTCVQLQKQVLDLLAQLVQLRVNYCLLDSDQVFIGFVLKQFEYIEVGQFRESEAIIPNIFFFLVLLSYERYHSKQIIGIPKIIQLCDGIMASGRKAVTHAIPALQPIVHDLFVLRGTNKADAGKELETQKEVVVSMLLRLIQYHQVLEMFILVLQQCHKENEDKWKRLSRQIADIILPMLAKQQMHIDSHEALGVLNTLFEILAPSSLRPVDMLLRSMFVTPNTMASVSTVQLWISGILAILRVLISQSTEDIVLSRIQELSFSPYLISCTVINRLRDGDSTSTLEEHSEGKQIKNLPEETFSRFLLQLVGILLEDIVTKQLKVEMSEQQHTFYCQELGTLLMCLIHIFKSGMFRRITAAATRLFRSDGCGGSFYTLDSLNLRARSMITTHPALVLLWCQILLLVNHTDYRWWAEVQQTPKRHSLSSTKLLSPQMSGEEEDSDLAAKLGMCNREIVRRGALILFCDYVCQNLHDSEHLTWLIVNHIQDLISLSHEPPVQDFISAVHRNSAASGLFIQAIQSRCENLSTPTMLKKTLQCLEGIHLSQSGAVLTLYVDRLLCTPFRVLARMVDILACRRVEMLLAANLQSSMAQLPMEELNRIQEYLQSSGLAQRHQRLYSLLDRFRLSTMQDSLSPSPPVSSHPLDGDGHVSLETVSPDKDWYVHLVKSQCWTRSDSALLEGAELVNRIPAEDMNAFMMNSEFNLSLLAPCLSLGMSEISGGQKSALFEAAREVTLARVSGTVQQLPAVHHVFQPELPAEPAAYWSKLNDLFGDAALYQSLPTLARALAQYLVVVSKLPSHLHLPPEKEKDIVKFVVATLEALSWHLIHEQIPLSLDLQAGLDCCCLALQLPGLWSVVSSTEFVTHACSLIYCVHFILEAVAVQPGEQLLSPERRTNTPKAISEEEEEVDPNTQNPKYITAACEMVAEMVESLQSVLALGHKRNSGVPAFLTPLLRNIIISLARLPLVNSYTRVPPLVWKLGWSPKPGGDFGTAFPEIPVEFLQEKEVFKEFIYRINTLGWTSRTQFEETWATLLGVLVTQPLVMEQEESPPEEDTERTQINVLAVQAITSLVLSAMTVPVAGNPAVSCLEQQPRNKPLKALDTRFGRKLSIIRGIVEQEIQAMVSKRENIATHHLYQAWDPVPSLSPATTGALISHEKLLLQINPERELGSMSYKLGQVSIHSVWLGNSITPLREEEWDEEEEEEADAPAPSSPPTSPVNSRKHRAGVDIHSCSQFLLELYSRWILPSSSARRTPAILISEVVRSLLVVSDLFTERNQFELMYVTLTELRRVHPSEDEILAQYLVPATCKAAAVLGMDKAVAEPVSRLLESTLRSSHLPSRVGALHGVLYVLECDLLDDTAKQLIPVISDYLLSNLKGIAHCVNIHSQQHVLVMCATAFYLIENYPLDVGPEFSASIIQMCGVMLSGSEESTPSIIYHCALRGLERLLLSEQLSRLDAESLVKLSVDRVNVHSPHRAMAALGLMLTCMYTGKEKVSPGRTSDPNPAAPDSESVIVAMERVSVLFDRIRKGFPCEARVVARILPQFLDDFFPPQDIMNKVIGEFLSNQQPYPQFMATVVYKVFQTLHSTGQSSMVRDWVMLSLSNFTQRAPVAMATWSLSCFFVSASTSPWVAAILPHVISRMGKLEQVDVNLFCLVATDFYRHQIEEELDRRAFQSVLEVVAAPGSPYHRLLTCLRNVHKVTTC

SMILES	IC50 (Q46 protein aggregates) [nM]	also measured
CNc1c(-c2cnc(OCc3ccc(OC)cn3)cn2)nc2cc(C#N)ccn12 [2-{5-[(5-methoxypyridin-2-yl)methoxy]pyrazin-2-yl}-3-(methylamino)imidazo[1,2-a]pyridine-7-carbonitrile]	< 100	–
CNc1c(-c2ccc(OCc3cnc(OC)cn3)nc2)nc2cc(C#N)ccn12 [2-{6-[(5-methoxypyrazin-2-yl)methoxy]pyridin-3-yl}-3-(methylamino)imidazo[1,2-a]pyridine-7-carbonitrile]	< 100	–
CNc1c(-c2cn3c(n2)sc2cc(OC)ccc23)nc2cc(C#N)ccn12 [2-{10-methoxy-7-thia-2,5-diazatricyclo[6.4.0.0^2,6]dodeca-1(12),3,5,8,10-pentaen-4-yl}-3-(methylamino)imidazo[1,2-a]pyridine-7-carbonitrile]	< 100	–
CNc1c(-c2cn3c(n2)sc2ccc(OC)cc23)nc2cc(C#N)ccn12 [2-{11-methoxy-7-thia-2,5-diazatricyclo[6.4.0.0^2,6]dodeca-1(12),3,5,8,10-pentaen-4-yl}-3-(methylamino)imidazo[1,2-a]pyridine-7-carbonitrile]	< 100	–
COc1ccc2oc(-c3nc4cc(C#N)ccn4c3N(C)C)cc2c1 [3-(dimethylamino)-2-(5-methoxy-1-benzofuran-2-yl)imidazo[1,2-a]pyridine-7-carbonitrile]	100 to 500	–
CNc1c(-c2cccc(-c3cnccn3)c2)nc2cc(C#N)ccn12 [3-(methylamino)-2-[3-(pyrazin-2-yl)phenyl]imidazo[1,2-a]pyridine-7-carbonitrile]	< 100	–
CNc1c(-c2cccc(OCc3cccnc3)c2)nc2cc(C#N)ccn12 [3-(methylamino)-2-[3-(pyridin-3-ylmethoxy)phenyl]imidazo[1,2-a]pyridine-7-carbonitrile]	< 100	–
C#CCOc1ccc(-c2nc3cc(C#N)ccn3c2NC)cc1 [3-(methylamino)-2-[4-(prop-2-yn-1-yloxy)phenyl]imidazo[1,2-a]pyridine-7-carbonitrile]	100 to 500	–
CNc1c(-c2ccc(-c3cnccn3)cc2)nc2cc(C#N)ccn12 [3-(methylamino)-2-[4-(pyrazin-2-yl)phenyl]imidazo[1,2-a]pyridine-7-carbonitrile]	< 100	–
CNc1c(-c2ccc(OCc3cccnc3)cc2)nc2cc(C#N)ccn12 [3-(methylamino)-2-[4-(pyridin-3-ylmethoxy)phenyl]imidazo[1,2-a]pyridine-7-carbonitrile]	< 100	–
CNc1c(-c2cc3cc(OCc4cccnc4)ccc3o2)nc2cc(C#N)ccn12 [3-(methylamino)-2-[5-(pyridin-3-ylmethoxy)-1-benzofuran-2-yl]imidazo[1,2-a]pyridine-7-carbonitrile]	< 100	–
CNc1c(-c2cccc(COCc3cccnc3)c2)nc2cc(C#N)ccn12 [3-(methylamino)-2-{3-[(pyridin-3-ylmethoxy)methyl]phenyl}imidazo[1,2-a]pyridine-7-carbonitrile]	100 to 500	–
CNc1c(-c2ccc(COCc3cccnc3)cc2)nc2cc(C#N)ccn12 [3-(methylamino)-2-{4-[(pyridin-3-ylmethoxy)methyl]phenyl}imidazo[1,2-a]pyridine-7-carbonitrile]	100 to 500	–
COc1ccc2oc(-c3nc4cc(C#N)ccn4c3CN(C)C)cc2c1 [3-[(dimethylamino)methyl]-2-(5-methoxy-1-benzofuran-2-yl)imidazo[1,2-a]pyridine-7-carbonitrile]	100 to 500	–
COc1ccc2oc(-c3nc4cc(C#N)ccn4c3N)cc2c1 [3-amino-2-(5-methoxy-1-benzofuran-2-yl)imidazo[1,2-a]pyridine-7-carbonitrile]	< 100	–
N#Cc1ccn2c(N)c(-c3cc4cc(OCCF)ccc4o3)nc2c1 [3-amino-2-[5-(2-fluoroethoxy)-1-benzofuran-2-yl]imidazo[1,2-a]pyridine-7-carbonitrile]	< 100	–
COc1ccc2oc(-c3nc4cc(C#N)ccn4c3NCCN(C)C)cc2c1 [3-{[2-(dimethylamino)ethyl]amino}-2-(5-methoxy-1-benzofuran-2-yl)imidazo[1,2-a]pyridine-7-carbonitrile]	100 to 500	–
CNc1c(-c2cc3cc(OC)ccc3o2)nc2ccc(F)cn12 [6-fluoro-2-(5-methoxy-1-benzofuran-2-yl)-N-methylimidazo[1,2-a]pyridin-3-amine]	< 100	–
CNc1c(-c2cc3cc(OC)ccc3o2)nc2cc(CN)ccn12 [7-(aminomethyl)-2-(5-methoxy-1-benzofuran-2-yl)-N-methylimidazo[1,2-a]pyridin-3-amine]	100 to 500	–
CNc1c(-c2cc3cc(OC)ccc3o2)nc2cc(Br)ccn12 [7-bromo-2-(5-methoxy-1-benzofuran-2-yl)-N-methylimidazo[1,2-a]pyridin-3-amine]	< 100	–
CNc1c(-c2cc3cc(OC)ccc3o2)nc2cc(Cl)ccn12 [7-chloro-2-(5-methoxy-1-benzofuran-2-yl)-N-methylimidazo[1,2-a]pyridin-3-amine]	< 100	–
C#Cc1ccn2c(NC)c(-c3cc4cc(OC)ccc4o3)nc2c1 [7-ethynyl-2-(5-methoxy-1-benzofuran-2-yl)-N-methylimidazo[1,2-a]pyridin-3-amine]	< 100	–
CNc1c(-c2cc3cc(OC)ccc3o2)nc2cc(F)ccn12 [7-fluoro-2-(5-methoxy-1-benzofuran-2-yl)-N-methylimidazo[1,2-a]pyridin-3-amine]	< 100	–
CNc1c(-c2cc3cc(OC)ccc3o2)nc2cc(OC)ccn12 [7-methoxy-2-(5-methoxy-1-benzofuran-2-yl)-N-methylimidazo[1,2-a]pyridin-3-amine]	< 100	–
CN(C)c1ccc(/C=C/c2nc3ccc(I)cc3[nH]2)cc1 [SBIM-3, 4-[(E)-2-(6-iodo-1H-benzimidazol-2-yl)ethenyl]-N,N-dimethylaniline]	–	binding to NFT in sections of AD brain tissue [1]: bound NFT; ratio of Kd values (tau aggregates vs Aβ1-42 aggregates) [2]: 2.73
CNc1c(-c2cc3c(o2)CCN(C(=O)OC(C)(C)C)C3)nc2cc(C#N)ccn12 [tert-butyl 2-[7-cyano-3-(methylamino)imidazo[1,2-a]pyridin-2-yl]-4H,5H,6H,7H-furo[3,2-c]pyridine-5-carboxylate]	100 to 500	–
